From patent US20250057910A1, “Application of Polypeptide in Preparation of Product for Preventing or Treating Skin Injury Diseases” (Sichuan Gooddoctor Panxi Pharmaceutical Co., Ltd., priority 2021, published 2025)
Ends that are not written are not given here.

Experiments:
[1] = tested on: HaCaT cells (human immortalized keratinocytes); assay: Proliferation of HaCaT cells (CCK8); type: cell-based; settings: 72 h, 1640 medium with 1% serum, FIG. 1
Experimental: Experimental method: Human immortalized keratinocytes (HaCAT cells) were adjusted to a concentration of 1.0*10^5 to 5.0*10^5/mL for passaging, and cultured at 37° C. and 5% CO2 for 24-36 hours for the biological activity detection. The cells were digested with 0.25% pancreatin for 5 min, a 1640 whole blood medium with more than 1 times the volume of pancreatin was added to stop digestion, a cell suspension was collected and centrifuged at 1000 RPM for 3 min, the supernatant was discarded, 2 mL of 1640 whole blood medium was added to resuspend the cells, 20 uL cell suspension was taken, stained with AOPI, and then the concentration of cells in the suspension was detected with a cell counter, the cell suspension was formulated with 1640 medium with 10% serum to a concentration of 5*10^4/mL and seeded into 96-well cell culture plates with 100 μL per well, i.e. 5000 cells/well, and cultured overnight at 37° C. and 5% CO2.
After 24 hours, the original culture medium was discarded and 100 μL of each of different concentrations of polypeptide solutions formulated with 1640 culture medium with 1% serum was added. […] The mixtures were cultured at 37° C. and 5% CO2 for 72 h, and the proliferation of the HaCaT cell line was detected by the CCK8 kit.

[2] = tested on: Wild-type AB-line zebrafish; assay: Tissue regeneration in zebrafish with caudal fin damage; type: in vivo; settings: 250, 500 and 1000 μg/mL in water, 28° C., 3 days; vs model control; FIG. 5
Experimental: Experimental animals: Wild-type AB-line zebrafish, raised in water for culturing fish at 28° C. (water quality: 200 mg of instant dissolving sea salt being added to every 1 L of water made by reverse osmosis, with a conductivity of 450-550 μS/cm, a pH of 6.5-8.5 and a hardness of 50-100 mg/L CaCO3), at the age of 3 days post fertilization (3 dpf). The animals were provided by the fish breeding center of Hangzhou Hunter Biotechnology Co., Ltd. with the experimental animal use license number of SYXK (Zhejiang) 2012-0171, and the breeding management complied with the requirements of international AAALAC certification (certification number: 001458).
Experimental method: 3 dpf wild AB-line zebrafish were randomly selected, and the caudal fins of zebrafish was excised to establish a model of caudal fin damage in zebrafish. […] Treatment was performed at 28° C. for 3 days, 10 zebrafish were randomly selected in each experimental group and placed under an anatomical microscope to take photos, the data were analyzed and collected using NIS-Elements D 3.20 advanced image processing software, the regeneration areas of caudal fins of zebrafish were analyzed, and the statistical analysis results of this index were used to evaluate the efficacy of the samples of promoting tissue regeneration.

[3] = tested on: SD rats; assay: Healing of full-layer skin defect wound in SD rats; type: in vivo, rat; settings: for Wound healing rate: SD rats, topical once a day, polypeptide 50 μg/cm^2, comparative polypeptide 1 41.90 μg/cm^2, comparative polypeptide 2 52.66 μg/cm^2, Mean ± SD, n = 8
Experimental: Experimental animals: SD male rats, SPF grade, 6 weeks old, weighing 180-220 g, from Beijing Vital River Laboratory Animal Technology Co., Ltd., with the experimental animal quality certification number of NO.110011220109610345, and the experimental animal use license number of SCXK (Beijing) 2021-0011.
Experimental method: SD rats were randomly divided into […] based on the body weight with 8 animals in each group, namely, vehicle group, the polypeptide group (50 μg/cm^2), comparative polypeptide 1 group (41.90 μg/cm^2) and comparative polypeptide 2 group (52.66 μg/cm^2). The amino acid sequence of comparative polypeptide 1 is Glu-Pro-Val-Pro-Leu; and the amino acid sequence of comparative polypeptide 2 is Pro-Ala-Ala-Glu-Pro-Val-Pro-Leu-Val-Lys-Gln-Glu.
After each experimental rat was anesthetized by intraperitoneal injection of 2% pentobarbital sodium (0.2 mL/100 g), a 2 cm^2 full-layer skin defect wound was prepared at each of both sides of the back spine. After hemostasis of the wound, the corresponding drug was administered at the wound locally by group. Each group was administered once a day, with a dosed volume of 72 μL/wound each time, for 14 consecutive days. After the administration, the wound was covered with a sterile vaseline gauze (5 cm*5 cm), and bandaged with multi-layer sterile gauzes. After the wound surgery, the wound was photographed, and the wound area was recorded as the baseline value (the wound was recorded as Day0). During the administration period, the areas of the wounds were photographed and measured 3 times a week, and the healing was observed.

PAAEPVPL [polypeptide] was tested, and the “Proliferation-promoting effect on the HaCaT cell line” value [1] was “significant effect of promoting proliferation”, the “Zebrafish caudal fin regeneration (regeneration area)” value [2] was “significantly promoting tissue regeneration” and the “Healing rate of full-layer skin defect wound (statement in words)” value ([3]; 50 μg/cm^2, days 3-10 after surgery, vs vehicle group) was “higher healing rate with a significant difference”. For the same sequence, the Wound healing rate ([3]; Day 0 (baseline)) was 0.00 ± 0.00%, the Wound healing rate ([3]; Day 3) was 29.70 ± 19.21 % and the Wound healing rate ([3]; Day 5) was 52.21 ± 11.54 %. The Wound healing rate ([3]; Day 7) was 74.12 ± 5.95 % and the Wound healing rate ([3]; Day 10) was 94.55 ± 2.40 %.
